This note sets out measurements from ChEMBL document CHEMBL6083182, “Development of Peptide Paratope Mimics Derived from the Anti-ROR1 Antibody and Long-Acting Peptide-Drug Conjugates for Targeted Cancer Therapy” (J Med Chem, 2024).

The source made the active and inactive calls. The rule behind the calls is not given here.

The subject of series [1] is MDA-MB-231. As to the kind of experiment: Induction of apoptosis in human MDA-MB-231 cells assessed as late apoptotic cells at 16 nM incubated for 24 hrs by AnnexinV-FITC/PI staining based flow cytometry (reference value: 0.034%). The series is classed as functional.
In series [2] the test system is MDA-MB-231. As to the kind of experiment: Cytotoxicity against ROR1-positive human MDA-MB-231 cells assessed as decrease in cell viability incubated for 24 hrs by CCK-8 assay. The series is classed as functional, cell-based. Conditions: MDA-MB-231, 24 h.
Series [3] can be described thus: Toxicity in BALB/c nude mouse xenografted with human MDA-MB-231 cells assessed as appearance of apoptotic/necrotic cells in liver at 5 mg/kg, iv administered once every 3 days for 27 days starting from day 3 by H and E staining based analysis. The series is classed as organism-based. Conditions: in vivo, 576 h, time 24 day. Background: In xenograft studies the graft and the host belong to different species.

Series [4] is described as follows: Cytotoxicity against human MCF-10A cells assessed as decrease in cell viability incubated for 24 hrs by CCK-8 assay. The series is classed as toxicity, cell-based. For orientation: Tetrazolium dyes change colour on reduction, which living cells bring about.
The nature of series [5]: Toxicity in BALB/c nude mouse xenografted in human MDA-MB-231 cells assessed as increase in ALP level at 5 mg/kg, iv administered once every 3 days for 27 days starting from day 3. The settings on record: in vivo, 576 h, time 24 day. The series is classed as organism-based.
Series [6] is described as follows: Toxicity in BALB/c nude mouse xenografted with human MDA-MB-231 cells assessed as body weight loss at 5 mg/kg, iv administered once every 3 days for 27 days starting from day 3. The series is classed as organism-based. Conditions: in vivo, 576 h, time 24 day.
A short description of series [7]: Drug uptake in ROR1-positive human MDA-MB-231 cells assessed as increase in fluorescence intensity incubated for 0.25 to 2 hrs by Hoechst 33342 staining based confocal fluorescence microscopic analysis. The series is classed as ADME, cell-based. The settings on record: time 0.25-2 hrs.
Series [8] can be described thus: Toxicity in BALB/c nude mouse xenografted in human MDA-MB-231 cells assessed as increase in AST level at 5 mg/kg, iv administered once every 3 days for 27 days. The series is classed as organism-based. Conditions: in vivo, 576 h, time 24 day.
Series [9] concerns MDA-MB-231. In words: Induction of apoptosis in human MDA-MB-231 cells assessed as early apoptotic cells at 16 nM incubated for 24 hrs by AnnexinV-FITC/PI staining based flow cytometry (reference value: 0%). The series is classed as functional. On the technique in general: Flow cytometry measures light scatter and fluorescence of single cells or particles in a stream.
Series [10] concerns MDA-MB-231. As to the kind of experiment: Induction of apoptosis in human MDA-MB-231 cells assessed as viable cells at 16 nM incubated for 24 hrs by AnnexinV-FITC/PI staining based flow cytometry (reference value: 99.9%). The series is classed as functional. The settings on record: read-out: Activity.
Series [11] can be described thus: Toxicity in BALB/c nude mouse xenografted in human MDA-MB-231 cells assessed as increase in urea level at 5 mg/kg, iv administered once every 3 days for 27 days starting from day 3. The series is classed as organism-based. The settings on record: in vivo, 576 h, time 24 day.
The nature of series [12]: Toxicity in BALB/c nude mouse xenografted with human MDA-MB-231 cells assessed as appearance of apoptotic/necrotic cells in kidney at 5 mg/kg, iv administered once every 3 days for 27 days starting from day 3 by H and E staining based analysis. The series is classed as organism-based. Conditions: in vivo, 576 h, time 24 day.
For another series, the system named is SK-HEP1. As to the kind of experiment: Cytotoxicity against human SK-HEP1 cells assessed as decrease in cell viability incubated for 24 hrs by CCK-8 assay. The series is classed as functional, cell-based. The settings on record: SK-HEP1, 24 h.
Series [13] concerns MDA-MB-231. In words: Antitumor activity against human MDA-MB-231 cells xenografted in BALB/c nude mouse assessed as tumor growth inhibition at 5 mg/kg, iv administered once every 3 days for 27 days starting from day 3. The series is classed as functional, organism-based. The settings on record: time 24.0 day.
Series [14] can be described thus: Toxicity in BALB/c nude mouse xenografted with human MDA-MB-231 cells assessed as appearance of apoptotic/necrotic cells in heart at 5 mg/kg, iv administered once every 3 days for 27 days starting from day 3 by H and E staining based analysis. The series is classed as organism-based. Conditions: in vivo, 576 h, time 24 day.
Series [15] in a line: Toxicity in BALB/c nude mouse xenografted in human MDA-MB-231 cells assessed as increase in ALT level at 5 mg/kg, iv administered once every 3 days for 27 days starting from day 3. The series is classed as organism-based. The settings on record: in vivo, 576 h, time 24 day.
In series [16] the test system is MDA-MB-231. As to the kind of experiment: Antitumor activity against human MDA-MB-231 cells xenografted in BALB/c nude mouse assessed as reduction in tumor volume at 5 mg/kg, iv measured after first injection starting from day 3 on day 6. Conditions: time 3.0 day. The series is classed as functional, organism-based.
Series [17] concerns MDA-MB-231. In words: Induction of apoptosis in human MDA-MB-231 cells assessed as necrotic cells at 16 nM incubated for 24 hrs by AnnexinV-FITC/PI staining based flow cytometry (reference value: 0.034%). The series is classed as functional.
Series [18] is described as follows: Toxicity in BALB/c nude mouse xenografted with human MDA-MB-231 cells assessed as appearance of apoptotic/necrotic cells in lungs at 5 mg/kg, iv administered once every 3 days for 27 days starting from day 3 by H and E staining based analysis. The series is classed as organism-based. The settings on record: in vivo, 576 h, time 24 day.
In series [19] the test system is MDA-MB-231. In words: Induction of apoptosis in human MDA-MB-231 cells at 10 uM incubated for 24 hrs by Annexin V-FITC/PI staining based flow cytometric analysis. The series is classed as functional, cell-based.

With `COc1cccc2c1C(=O)c1c(O)c3c(c(O)c1C2=O)C[C@@](O)(C(=O)CO)C[C@@H]3O[C@H]1C[C@H](N)[C@H](O)[C@H](C)O1` [DOXORUBICIN], the Activity with MDA-MB-231 [1] is recorded as 3.25%; in [3] it was “Toxic”; in series [5] it was “Toxic”; in [6], “Toxic”; in [8], “Toxic”; in the series with MDA-MB-231 [9] it was 24.9%. The Activity result in [11] is “Toxic”; in [12], “Toxic”; with MDA-MB-231 [13], “Not active; Poor Antitumor Effect Observed”; in series [14], “Toxic”; in series [15] it was “Toxic”; in the series on MDA-MB-231 [17] it was 0.39%. For the same compound, the Activity result in [18] is reported as “Toxic”; with MDA-MB-231 [19] it was “Active; Exhibited Apoptosis Mostly In Late Stage”. Further, the results for the IC50 with MDA-MB-231 [2] and in the series with SK-HEP1 were 183 nM and 28 nM, respectively. Moreover, the IC50 at 24 h in [4] was found to be 121 nM. Moreover, the Drug uptake result in series [7] was “Active”. Further, in the series with MDA-MB-231 [10], the viability at 0.016 µM was 71.5%. Also, in the series with MDA-MB-231 [16], the result was inactive.

The IC50 is the concentration needed to halve the response being measured.
